Data: patent US20110009435A1, “HETERO BICYCLIC CARBOXAMIDE DERIVATIVES AND THEIR PHARMACEUTICAL USE AND COMPOSITIONS” (Pfizer, Inc., priority 2007, published 2011)

What was measured:
Type in all cases: biochemical
Human recombinant MMP-9 = target: T1, Human recombinant MMP-9 (Homo sapiens, UniProt P14780); assay: In vitro MMP inhibition assay, MMP-9 (fluorogenic peptide substrate cleavage, Ki); conditions: human MMP-9, full length (FL); read-out: hMMP Ki 09/FL
T1 construct: made in house; host or cells: MMP-9-transfected HT1080 cells
T1 sequence (P14780 107-707 limits assumed): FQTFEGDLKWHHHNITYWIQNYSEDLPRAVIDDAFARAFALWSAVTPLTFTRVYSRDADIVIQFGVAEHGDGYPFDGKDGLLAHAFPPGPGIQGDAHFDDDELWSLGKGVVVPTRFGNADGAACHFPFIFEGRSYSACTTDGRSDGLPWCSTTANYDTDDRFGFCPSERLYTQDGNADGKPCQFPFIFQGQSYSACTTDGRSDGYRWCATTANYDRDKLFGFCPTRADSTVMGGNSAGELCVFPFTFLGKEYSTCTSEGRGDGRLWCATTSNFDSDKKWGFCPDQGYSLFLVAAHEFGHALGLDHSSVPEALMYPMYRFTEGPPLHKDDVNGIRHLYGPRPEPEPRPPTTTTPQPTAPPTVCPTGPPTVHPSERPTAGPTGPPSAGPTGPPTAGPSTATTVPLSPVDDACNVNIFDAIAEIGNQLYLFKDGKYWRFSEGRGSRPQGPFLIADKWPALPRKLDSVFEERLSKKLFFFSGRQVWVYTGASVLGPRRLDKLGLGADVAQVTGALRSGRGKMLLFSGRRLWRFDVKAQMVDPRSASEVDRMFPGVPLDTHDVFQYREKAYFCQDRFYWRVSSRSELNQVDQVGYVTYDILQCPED
Procedure: (§1) Matrix Metalloproteinase inhibitor compounds were analyzed in in vitro MMP Inhibition assays to determine their ability to inhibit the MMP cleavage of peptide substrates. Inhibition constants (Ki) were calculated from the assayed compound-MMP interactions.
(§2) Human recombinant MMP-1, MMP-2, MMP-3, MMP-7, MMP-9, MMP-12, MMP-13, MMP-14 and MMP-15 were used in these assays. The enzymes are prepared following known laboratory procedures. Protocols for the preparation and use of these enzymes are available in the scientific literature. See, e.g., Enzyme Nomenclature (Academic Press, San Diego, Calif., 1992) and the citations therein. See also Frije et al., J. Biol. Chem., 26(24), 16766-73 (1994).
(§3) The MMP-1 proenzyme may be purified from spent media of MMP-1-transfected HT-1080 cells and the protein purified on a zinc chelating column. The MMP-2 proenzyme may be purified by gelatin Sepharose chromatography from MMP-2-transfected p2AHT2 cells. […]
(§4) The inhibitors are analyzed using a single low enzyme concentration with a single substrate concentration fixed at or below the Km. […] Apparent inhibitory constants are determined by non-linear regression of reaction velocity as a function of inhibitor and enzyme concentration using Morrison's equation, as described by Kuzmic, Anal. Biochem. 286, 45-50 (2000). […]

Human recombinant MMP-2 = target: T2, Human recombinant MMP-2 (Homo sapiens, UniProt P08253); assay: In vitro MMP inhibition assay, MMP-2 (fluorogenic peptide substrate cleavage, Ki); conditions: human MMP-2, full length (FL); read-out: hMMP Ki 02/FL
T2 construct: made in house; host or cells: MMP-2-transfected p2AHT2 cells
T2 sequence (P08253 110-660): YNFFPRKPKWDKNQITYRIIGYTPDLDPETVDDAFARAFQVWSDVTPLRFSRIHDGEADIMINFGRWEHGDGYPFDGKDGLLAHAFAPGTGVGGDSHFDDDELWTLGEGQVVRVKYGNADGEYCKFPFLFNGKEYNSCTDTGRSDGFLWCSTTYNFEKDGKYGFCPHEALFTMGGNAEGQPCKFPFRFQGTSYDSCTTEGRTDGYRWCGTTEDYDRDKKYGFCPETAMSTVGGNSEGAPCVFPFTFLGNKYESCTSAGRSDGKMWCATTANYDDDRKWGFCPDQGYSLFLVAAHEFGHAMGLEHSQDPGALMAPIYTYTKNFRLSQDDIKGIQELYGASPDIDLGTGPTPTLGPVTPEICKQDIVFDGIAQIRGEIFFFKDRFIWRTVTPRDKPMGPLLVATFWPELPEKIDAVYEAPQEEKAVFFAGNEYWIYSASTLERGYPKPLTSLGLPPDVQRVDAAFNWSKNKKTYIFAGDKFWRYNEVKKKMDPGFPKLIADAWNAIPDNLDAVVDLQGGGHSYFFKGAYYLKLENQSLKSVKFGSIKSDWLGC
Procedure: as §1, §2, §3, §4

Human recombinant MMP-7 = target: T3, Human recombinant MMP-7 (Homo sapiens, UniProt P09237); assay: In vitro MMP inhibition assay, MMP-7 (fluorogenic peptide substrate cleavage, Ki); conditions: human MMP-7 (CD); read-out: hMMP Ki 07/CD
T3 construct: 07/CD; made in house
T3 sequence (P09237 95-267): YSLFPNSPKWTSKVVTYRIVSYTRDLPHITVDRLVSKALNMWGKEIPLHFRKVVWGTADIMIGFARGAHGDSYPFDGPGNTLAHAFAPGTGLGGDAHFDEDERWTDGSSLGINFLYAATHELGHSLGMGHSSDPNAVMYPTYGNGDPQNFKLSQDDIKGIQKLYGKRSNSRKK
Procedure: as §1, §2
The MMP-7 cDNA may be used to express the enzyme in E. coli inclusion bodies. Then the enzyme is solubilized in urea, purified on a preparative […] reverse phase HPLC column, and refolded in the presence of zinc acetate and purified for use. […]
as §4

Human recombinant MMP-14 = target: T4, Human recombinant MMP-14 (Homo sapiens, UniProt P50281); assay: In vitro MMP inhibition assay, MMP-14 catalytic domain (fluorogenic peptide substrate cleavage, Ki); conditions: human MMP-14, catalytic domain (CD); read-out: hMMP Ki 14/CD
T4 construct: The MMP-14 cDNA may be used to express the catalytic domain enzyme in E. coli inclusion bodies; made in house
Procedure: as §1, §2
The MMP-14 cDNA may be used to express the catalytic domain enzyme in E. coli inclusion bodies. Then the enzyme is solubilized in urea, purified on a preparative […] reverse phase HPLC column, and refolded in the presence of zinc acetate and purified for use.
The fluorogenic, methoxycoumarin-containing polypeptide substrate MCA-ArgProLeuGlyLeuDpaAlaArgGluArgNH2 was used as the MMP substrate in the MMP inhibition assays for human recombinant MMP-1, MMP-2, MMP-7, MMP-9, MMP-12, MMP-13, MMP-14 and MMP-15. Here, “MCA” is 7-methoxycoumarin-4-yl acetyl and “Dpa” is 3-(2,4-dinitrophenyl)-L-2,3-di-aminopropionyl group. In the absence of MMP inhibitory activity, the substrate is cleaved at the Gly-Leu peptide bond. The cleavage separates the highly fluorogenic peptide from the 2,4-dinitrophenyl quencher, resulting in an increase of fluorescent intensity.
For the human MMP-1, MMP-2, MMP-7, MMP-9, MMP-12, MMP-13, MMP-14 and MMP-15 assays, dilutions of the inhibitors (or salts thereof) were prepared in 100% dimethyl sulfoxide (DMSO). The stock solutions were diluted in Buffer A (100 mM Tris-HCl, 100 mM NaCl, 10 mM CaCl2, 0.005% polyoxyethylene 23 lauryl ether, pH 7.5) to obtain solutions with different compound concentrations, i.e., assay solutions with different concentrations of the assayed MMP inhibitory compound in 1% DMSO. The experiment controls contained the same amount of Buffer A/DMSO as the assayed sample, but contained no inhibitor.
To determine Ki, the inhibitor samples are incubated at room temperature for 1 hr in the presence of enzyme and then 4 μM of appropriate MMP substrate was added, and samples were analyzed on a Tecan SpectraFlour Plus plate reader. The excitation wavelength is 330 nm, and the emission (fluorescence) wavelength is 420 nm. In the absence of MMP inhibitory activity, the substrate is cleaved at the Gly-Leu bond resulting in an increase of relative fluorescence. Inhibition is observed as a reduced rate of increase in relative fluorescence.
The inhibitors are analyzed using a single low enzyme concentration with a single substrate concentration fixed at or below the Km. This protocol is a modification of method by Knight et al., FEBS Lett., 296(3), 263-266 (1992). Apparent inhibitory constants are determined by non-linear regression of reaction velocity as a function of inhibitor and enzyme concentration using Morrison's equation, as described by Kuzmic, Anal. Biochem. 286, 45-50 (2000). Modifications were made in the non-linear regression method to allow a common control reaction rate and effective enzyme concentration to be shared between all dose-response relationships on a given assay plate. […]

Ki (Human recombinant MMP-9): > 10 µM
Ki (Human recombinant MMP-2): 5.65 µM
Ki (Human recombinant MMP-7): > 10 µM
Ki (Human recombinant MMP-14): > 10 µM
SMILES: COc1cccc(CNC(=O)c2nc3ccc(F)c(OCCC4CCN(C(=O)CO)CC4)c3c(=O)[nH]2)c1 [Example 34, 6-fluoro-5-[2-(1-glycoloylpiperidin-4-yl)ethoxy]-N-(3-methoxybenzyl)-4-oxo-3,4-dihydroquinazoline-2-carboxamide]
